Patent publication US9598414B2, “Substituted benzo[5,6]azepino[3,2,1-hi]pyrido[4,3-b]indoles and substituted benzo[6,7][1,4]oxazepino[2,3,4-hi]pyrido[4,3-b]indoles for treating CNS disorders” (Daya Drug Discoveries, Inc., priority 2013, dated 2017)
Like-named read-outs stand apart in the source and are kept apart here.

How the values were obtained:
[1] = target: T1, Serotonin 5-HT1A (Homo sapiens, UniProt P08908); assay: Receptor binding, 5-HT1A
T1 sequence (P08908 1-422): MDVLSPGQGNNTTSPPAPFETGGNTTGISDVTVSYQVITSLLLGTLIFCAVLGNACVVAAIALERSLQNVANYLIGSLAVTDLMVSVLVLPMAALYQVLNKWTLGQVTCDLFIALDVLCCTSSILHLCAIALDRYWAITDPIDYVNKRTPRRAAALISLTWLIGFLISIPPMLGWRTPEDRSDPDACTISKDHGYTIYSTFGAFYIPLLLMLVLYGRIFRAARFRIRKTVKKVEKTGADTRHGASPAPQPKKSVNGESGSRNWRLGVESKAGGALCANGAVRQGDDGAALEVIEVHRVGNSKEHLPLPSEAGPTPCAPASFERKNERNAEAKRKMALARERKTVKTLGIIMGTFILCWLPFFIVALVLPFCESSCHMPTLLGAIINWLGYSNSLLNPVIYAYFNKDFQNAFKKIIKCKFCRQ

[2] = target: Serotonin 5-HT1B (Homo sapiens, UniProt P28222); assay: Receptor binding, 5-HT1B
Serotonin 5-HT1B, sequence (P28222 whole entry): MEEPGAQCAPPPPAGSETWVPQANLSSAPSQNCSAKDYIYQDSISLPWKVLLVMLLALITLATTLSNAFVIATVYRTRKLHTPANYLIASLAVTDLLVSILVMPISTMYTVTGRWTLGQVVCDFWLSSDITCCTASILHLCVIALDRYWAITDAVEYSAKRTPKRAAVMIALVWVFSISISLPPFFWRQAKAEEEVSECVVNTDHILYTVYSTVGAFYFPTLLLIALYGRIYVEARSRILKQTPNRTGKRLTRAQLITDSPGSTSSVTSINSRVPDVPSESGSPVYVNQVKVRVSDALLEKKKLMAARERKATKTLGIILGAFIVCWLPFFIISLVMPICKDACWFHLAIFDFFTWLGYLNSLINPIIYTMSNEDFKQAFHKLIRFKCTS

[3] = target: Serotonin 5-HT1D (Homo sapiens, UniProt P28221); assay: Receptor binding, 5-HT1D
Serotonin 5-HT1D, sequence (P28221 whole entry): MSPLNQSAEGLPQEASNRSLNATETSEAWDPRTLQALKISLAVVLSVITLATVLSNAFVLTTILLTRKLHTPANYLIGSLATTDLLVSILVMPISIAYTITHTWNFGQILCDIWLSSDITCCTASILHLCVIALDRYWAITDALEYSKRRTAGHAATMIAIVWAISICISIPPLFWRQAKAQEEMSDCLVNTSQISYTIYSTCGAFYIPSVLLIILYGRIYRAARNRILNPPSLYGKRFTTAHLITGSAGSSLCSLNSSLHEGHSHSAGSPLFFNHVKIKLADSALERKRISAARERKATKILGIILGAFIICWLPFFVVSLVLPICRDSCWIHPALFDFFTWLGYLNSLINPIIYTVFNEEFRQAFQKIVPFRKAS

[4] = target: Serotonin 5-HT1E (Homo sapiens, UniProt P28566); assay: Receptor binding, 5-HT1E
[5] = target: Serotonin 5-HT2A (Homo sapiens, UniProt P28223); assay: Receptor binding, 5-HT2A
Serotonin 5-HT2A, sequence (P28223 whole entry): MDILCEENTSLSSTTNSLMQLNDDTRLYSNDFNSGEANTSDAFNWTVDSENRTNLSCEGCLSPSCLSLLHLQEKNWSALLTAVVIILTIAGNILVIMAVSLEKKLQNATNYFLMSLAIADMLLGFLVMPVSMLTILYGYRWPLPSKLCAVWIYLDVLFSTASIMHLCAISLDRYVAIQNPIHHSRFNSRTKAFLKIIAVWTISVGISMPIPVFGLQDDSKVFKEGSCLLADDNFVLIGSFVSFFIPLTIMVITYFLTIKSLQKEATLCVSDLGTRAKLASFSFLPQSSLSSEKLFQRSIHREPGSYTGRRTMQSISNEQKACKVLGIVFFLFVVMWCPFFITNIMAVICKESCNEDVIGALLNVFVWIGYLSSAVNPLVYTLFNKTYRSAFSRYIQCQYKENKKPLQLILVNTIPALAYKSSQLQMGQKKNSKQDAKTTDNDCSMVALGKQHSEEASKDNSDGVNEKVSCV

[6] = target: Serotonin 5-HT2B (Homo sapiens, UniProt P41595); assay: Receptor binding, 5-HT2B
Serotonin 5-HT2B, sequence (P41595 whole entry): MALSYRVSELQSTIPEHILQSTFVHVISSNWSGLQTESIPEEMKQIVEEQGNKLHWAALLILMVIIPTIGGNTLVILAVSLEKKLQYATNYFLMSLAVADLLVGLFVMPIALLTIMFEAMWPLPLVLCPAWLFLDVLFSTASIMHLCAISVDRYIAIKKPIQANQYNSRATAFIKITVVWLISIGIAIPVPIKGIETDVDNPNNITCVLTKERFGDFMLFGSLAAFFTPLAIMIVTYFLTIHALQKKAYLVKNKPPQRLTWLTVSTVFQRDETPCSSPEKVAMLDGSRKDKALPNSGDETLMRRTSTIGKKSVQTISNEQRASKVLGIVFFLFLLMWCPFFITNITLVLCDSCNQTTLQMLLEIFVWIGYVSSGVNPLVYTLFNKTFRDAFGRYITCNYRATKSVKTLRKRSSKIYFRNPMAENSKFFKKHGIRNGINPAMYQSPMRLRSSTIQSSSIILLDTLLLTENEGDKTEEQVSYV

[7] = target: T2, Serotonin 5-HT2C (Homo sapiens, UniProt P28335); assay: Receptor binding, 5-HT2C; details: 5-HT2C
T2 sequence (P28335 33-458): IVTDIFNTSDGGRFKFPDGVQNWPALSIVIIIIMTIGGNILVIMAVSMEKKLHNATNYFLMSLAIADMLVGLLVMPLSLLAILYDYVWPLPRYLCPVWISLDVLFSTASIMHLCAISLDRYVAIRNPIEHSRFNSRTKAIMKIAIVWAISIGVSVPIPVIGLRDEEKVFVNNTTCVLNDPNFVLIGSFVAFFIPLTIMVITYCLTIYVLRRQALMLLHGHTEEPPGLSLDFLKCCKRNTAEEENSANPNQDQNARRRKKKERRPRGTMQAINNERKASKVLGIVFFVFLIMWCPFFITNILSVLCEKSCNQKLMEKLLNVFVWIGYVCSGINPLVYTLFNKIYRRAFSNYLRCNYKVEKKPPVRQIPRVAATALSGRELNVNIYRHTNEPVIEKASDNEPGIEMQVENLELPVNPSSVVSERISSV

[8] = target: Serotonin 5-HT5A (Homo sapiens, UniProt P47898); assay: Receptor binding, 5-HT5A
Serotonin 5-HT5A, sequence (P47898 whole entry): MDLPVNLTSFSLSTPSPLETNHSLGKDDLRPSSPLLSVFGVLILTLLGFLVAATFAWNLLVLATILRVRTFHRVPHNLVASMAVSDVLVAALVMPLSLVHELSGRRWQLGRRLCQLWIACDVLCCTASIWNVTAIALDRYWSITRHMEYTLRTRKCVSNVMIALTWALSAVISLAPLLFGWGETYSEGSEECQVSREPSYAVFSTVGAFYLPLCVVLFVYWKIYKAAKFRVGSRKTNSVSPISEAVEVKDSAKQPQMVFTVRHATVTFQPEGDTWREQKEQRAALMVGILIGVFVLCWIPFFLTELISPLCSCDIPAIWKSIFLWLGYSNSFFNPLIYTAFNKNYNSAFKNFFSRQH

[9] = target: Serotonin 5-HT6 (Homo sapiens, UniProt P50406); assay: Receptor binding, 5-HT6; details: for Ki: 5-HT6
Serotonin 5-HT6, sequence (P50406 whole entry): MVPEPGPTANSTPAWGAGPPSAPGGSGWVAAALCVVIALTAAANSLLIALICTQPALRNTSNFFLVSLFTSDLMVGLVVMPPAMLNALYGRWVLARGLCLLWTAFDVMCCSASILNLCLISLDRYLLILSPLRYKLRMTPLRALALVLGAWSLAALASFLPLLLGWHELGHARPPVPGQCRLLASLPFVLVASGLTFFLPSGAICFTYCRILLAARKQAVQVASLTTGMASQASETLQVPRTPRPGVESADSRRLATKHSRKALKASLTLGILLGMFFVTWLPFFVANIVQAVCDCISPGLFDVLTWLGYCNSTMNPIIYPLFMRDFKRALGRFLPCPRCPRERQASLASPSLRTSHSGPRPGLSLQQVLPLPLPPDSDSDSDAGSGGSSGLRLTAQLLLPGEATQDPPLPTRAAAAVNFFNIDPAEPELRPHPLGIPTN

[10] = target: Serotonin 5-HT7 (Homo sapiens, UniProt P34969); assay: Receptor binding, 5-HT7; details: for Ki: 5-HT7
Serotonin 5-HT7, sequence (P34969 whole entry): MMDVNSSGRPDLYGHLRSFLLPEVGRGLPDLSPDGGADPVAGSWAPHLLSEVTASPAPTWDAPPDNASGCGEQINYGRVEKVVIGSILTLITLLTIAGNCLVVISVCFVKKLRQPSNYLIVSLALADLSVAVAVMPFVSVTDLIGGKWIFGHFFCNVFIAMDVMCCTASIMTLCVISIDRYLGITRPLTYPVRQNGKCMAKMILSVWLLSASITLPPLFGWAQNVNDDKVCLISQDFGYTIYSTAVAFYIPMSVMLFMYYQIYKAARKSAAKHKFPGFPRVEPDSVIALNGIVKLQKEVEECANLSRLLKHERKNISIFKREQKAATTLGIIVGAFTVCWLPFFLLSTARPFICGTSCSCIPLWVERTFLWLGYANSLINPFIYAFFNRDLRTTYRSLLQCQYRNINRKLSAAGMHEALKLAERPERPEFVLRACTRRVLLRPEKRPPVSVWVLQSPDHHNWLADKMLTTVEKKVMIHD

[11] = target: Dopamine D2 (Homo sapiens, UniProt P14416); assay: Receptor binding, D2
[12] = target: Dopamine D5 (Homo sapiens, UniProt P21918); assay: Receptor binding, D5
[13] = target: α-Adrenergic α1A (Homo sapiens, UniProt P35348); assay: Receptor binding, α1A
α-Adrenergic α1A, sequence (P35348 whole entry): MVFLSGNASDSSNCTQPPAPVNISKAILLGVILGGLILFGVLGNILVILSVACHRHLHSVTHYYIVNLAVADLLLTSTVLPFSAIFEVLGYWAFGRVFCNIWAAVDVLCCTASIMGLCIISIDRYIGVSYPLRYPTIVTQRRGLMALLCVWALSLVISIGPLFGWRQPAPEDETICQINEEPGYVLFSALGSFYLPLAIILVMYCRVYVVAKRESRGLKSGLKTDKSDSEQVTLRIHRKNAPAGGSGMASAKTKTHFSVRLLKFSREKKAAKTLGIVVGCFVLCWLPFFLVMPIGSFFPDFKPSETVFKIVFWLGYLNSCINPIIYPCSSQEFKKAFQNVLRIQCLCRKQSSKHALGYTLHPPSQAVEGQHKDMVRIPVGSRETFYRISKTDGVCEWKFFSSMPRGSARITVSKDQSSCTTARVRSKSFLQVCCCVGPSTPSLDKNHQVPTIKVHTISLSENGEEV

[14] = target: α-Adrenergic α1B (Homo sapiens, UniProt P35368); assay: Receptor binding, α1B
[15] = target: α-Adrenergic α1D (Homo sapiens, UniProt P25100); assay: Receptor binding, α1D
[16] = target: T3, α-Adrenergic α2A (Homo sapiens, UniProt P08913); assay: Receptor binding, α2A
T3 sequence (P08913 1-465): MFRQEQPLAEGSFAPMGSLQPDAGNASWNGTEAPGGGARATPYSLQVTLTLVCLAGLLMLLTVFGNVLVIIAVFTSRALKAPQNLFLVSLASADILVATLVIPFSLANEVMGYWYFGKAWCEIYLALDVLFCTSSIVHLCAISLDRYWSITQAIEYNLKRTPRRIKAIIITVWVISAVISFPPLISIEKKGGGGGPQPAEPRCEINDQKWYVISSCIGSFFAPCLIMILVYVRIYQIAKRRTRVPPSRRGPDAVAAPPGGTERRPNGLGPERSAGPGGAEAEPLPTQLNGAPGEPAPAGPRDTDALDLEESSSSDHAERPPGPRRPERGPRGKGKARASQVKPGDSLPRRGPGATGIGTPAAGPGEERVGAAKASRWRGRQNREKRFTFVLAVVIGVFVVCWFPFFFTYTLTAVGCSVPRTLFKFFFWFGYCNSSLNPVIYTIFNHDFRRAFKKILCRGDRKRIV

[17] = target: T4, α-Adrenergic α2B (Homo sapiens, UniProt P18089); assay: Receptor binding, α2B
T4 sequence (P18089 1-450): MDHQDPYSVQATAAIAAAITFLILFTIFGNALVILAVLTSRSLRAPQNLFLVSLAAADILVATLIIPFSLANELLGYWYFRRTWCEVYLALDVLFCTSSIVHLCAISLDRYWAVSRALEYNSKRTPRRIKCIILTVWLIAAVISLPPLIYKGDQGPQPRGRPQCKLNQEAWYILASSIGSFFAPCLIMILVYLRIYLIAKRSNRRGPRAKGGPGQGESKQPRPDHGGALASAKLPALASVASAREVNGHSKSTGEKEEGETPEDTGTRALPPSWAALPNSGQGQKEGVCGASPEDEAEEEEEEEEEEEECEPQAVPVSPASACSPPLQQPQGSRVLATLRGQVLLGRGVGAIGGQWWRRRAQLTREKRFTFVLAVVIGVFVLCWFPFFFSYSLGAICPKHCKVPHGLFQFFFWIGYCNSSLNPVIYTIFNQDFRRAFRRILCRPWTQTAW

[18] = target: T5, α-Adrenergic α2C (Homo sapiens, UniProt P18825); assay: Receptor binding, α2C
T5 sequence (P18825 1-462): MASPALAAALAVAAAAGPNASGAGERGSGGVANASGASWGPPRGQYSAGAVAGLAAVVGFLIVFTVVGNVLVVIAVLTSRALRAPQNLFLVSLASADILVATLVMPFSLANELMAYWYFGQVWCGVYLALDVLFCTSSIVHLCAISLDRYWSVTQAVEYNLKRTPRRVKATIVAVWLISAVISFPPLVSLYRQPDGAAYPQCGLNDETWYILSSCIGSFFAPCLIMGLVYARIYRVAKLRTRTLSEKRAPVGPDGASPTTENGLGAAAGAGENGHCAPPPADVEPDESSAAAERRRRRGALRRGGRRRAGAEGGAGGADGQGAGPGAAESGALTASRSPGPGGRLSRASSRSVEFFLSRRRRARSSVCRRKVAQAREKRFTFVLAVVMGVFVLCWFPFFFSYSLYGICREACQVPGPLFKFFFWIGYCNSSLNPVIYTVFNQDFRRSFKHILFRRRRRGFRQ

[19] = target: Histamine H1 (Homo sapiens, UniProt P35367); assay: Receptor binding, H1; details: for Ki: H1
Histamine H1, sequence (P35367 whole entry): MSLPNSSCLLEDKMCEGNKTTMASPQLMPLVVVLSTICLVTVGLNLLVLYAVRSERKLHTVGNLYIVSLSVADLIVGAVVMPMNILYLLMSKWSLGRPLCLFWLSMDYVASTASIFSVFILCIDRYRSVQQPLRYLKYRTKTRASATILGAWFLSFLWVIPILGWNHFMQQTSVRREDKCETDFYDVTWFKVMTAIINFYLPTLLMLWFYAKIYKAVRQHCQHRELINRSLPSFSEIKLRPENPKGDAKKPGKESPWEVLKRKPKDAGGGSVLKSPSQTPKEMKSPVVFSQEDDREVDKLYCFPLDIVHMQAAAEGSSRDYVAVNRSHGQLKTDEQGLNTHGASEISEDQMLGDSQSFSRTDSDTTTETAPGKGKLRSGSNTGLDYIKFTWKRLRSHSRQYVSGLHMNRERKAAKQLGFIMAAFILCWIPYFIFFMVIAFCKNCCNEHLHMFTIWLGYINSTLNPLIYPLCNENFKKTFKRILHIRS

[20] = target: Histamine H2 (Homo sapiens, UniProt P25021); assay: Receptor binding, H2
[21] = target: Sigma σ2 (Homo sapiens, UniProt Q5BJF2); assay: Receptor binding, σ2; details: σ2
Sigma σ2, sequence (Q5BJF2 whole entry): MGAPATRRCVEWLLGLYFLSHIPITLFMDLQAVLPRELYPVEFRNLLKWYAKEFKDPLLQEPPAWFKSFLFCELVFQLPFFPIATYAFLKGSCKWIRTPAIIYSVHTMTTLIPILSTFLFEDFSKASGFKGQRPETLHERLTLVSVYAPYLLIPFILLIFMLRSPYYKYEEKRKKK

[22] = target: Opioid κ (Homo sapiens, UniProt P41145); assay: Receptor binding, opioid κ
[23] = target: Muscarinic M1 (Homo sapiens, UniProt P11229); assay: Receptor binding, M1
[24] = target: Muscarinic M3 (Homo sapiens, UniProt P20309); assay: Receptor binding, M3
[25] = target: Muscarinic M5 (Homo sapiens, UniProt P08912); assay: Receptor binding, M5
[26] = target: Serotonin transporter (Homo sapiens, UniProt P31645); assay: Receptor binding, serotonin transporter
Serotonin transporter, sequence (P31645 whole entry): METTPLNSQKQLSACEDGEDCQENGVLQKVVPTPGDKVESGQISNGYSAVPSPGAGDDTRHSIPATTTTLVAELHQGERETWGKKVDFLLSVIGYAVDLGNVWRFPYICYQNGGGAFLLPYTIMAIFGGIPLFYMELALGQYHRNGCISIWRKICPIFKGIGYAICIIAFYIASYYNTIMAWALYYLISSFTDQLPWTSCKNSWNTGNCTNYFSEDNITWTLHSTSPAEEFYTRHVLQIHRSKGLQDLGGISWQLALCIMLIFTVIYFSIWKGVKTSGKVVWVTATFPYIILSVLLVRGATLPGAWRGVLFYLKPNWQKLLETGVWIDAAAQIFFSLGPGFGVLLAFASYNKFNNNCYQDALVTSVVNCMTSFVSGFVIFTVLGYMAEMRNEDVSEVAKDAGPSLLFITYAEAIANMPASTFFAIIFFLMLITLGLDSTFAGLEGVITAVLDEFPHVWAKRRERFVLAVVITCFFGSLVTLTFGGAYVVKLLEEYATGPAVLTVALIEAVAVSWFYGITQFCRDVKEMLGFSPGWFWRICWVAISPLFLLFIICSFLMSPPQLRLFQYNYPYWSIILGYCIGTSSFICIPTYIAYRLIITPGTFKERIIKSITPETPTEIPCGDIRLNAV

[27] = target: Dopamine D3 (Homo sapiens, UniProt P35462); assay: Receptor binding, D3
[28] = target: Norepinephrine transporter (Homo sapiens, UniProt P23975); assay: Receptor binding, norepinephrine transporter; details: Transporters: Norepinephrine
[29] = tested on: dopamine receptors; assay: Receptor binding, dopamine receptors; details: any of the dopamine receptors, summary of Table 1

Ki [1] | Ki [2] | Ki [3] | Ki [5] | Ki [6] | Ki [9] | Ki [10] | Ki [16] | Ki [17] | Ki [18] | Ki [19] | Ki [21] | Structure (SMILES) | further results
596 nM | 1360 nM | 85 nM | 24 nM | 87 nM | 155 nM | 100 nM | 228 nM | 413 nM | 173 nM | 50 nM | 2230 nM | CN1CCc2c(c3cccc4c3n2-c2ccccc2CC4)C1 [Compound 6a, reference compound] | Ki [4]: 4.04 µM; Ki [7]: 10 nM; Ki [8]: 750 nM; Ki [11]: 835 nM; Ki [12]: 581 nM; Ki [13]: 2370 nM; Ki [14]: 3.31 µM; Ki [15]: 595 nM; Ki [20]: 81 nM; Ki [22]: 2180 nM; Ki [23]: 4.46 µM; Ki [24]: 3.76 µM; Ki [25]: 5.17 µM; Ki ([26]; Transporters: Serotonin): 2190 nM
375 nM | 715 nM | 29 nM | 736 nM | 57 nM | 273 nM | 212 nM | 1800 nM | 2190 nM | 770 nM | 48 nM | 520 nM | CN1CCc2c(c3cccc4c3n2Cc2ccccc2C4)C1 [Compound 13a] | binding, in words ([1]; summary of Table 1): moderate binding; binding, in words ([3]; summary of Table 1): strong binding; binding, in words ([6]; summary of Table 1): strong binding; binding, in words ([9]; 5-HT6, text summary of Table 1): moderate binding; binding, in words ([10]; 5-HT7, text summary of Table 1): moderate binding; Ki [27]: 1500 nM; binding, in words ([19]; H1, text summary of Table 1): strong binding; Ki [28]: > 10 µM; Ki [26]: 2190 nM; binding, in words [29]: neither of the two compounds 13a and 13b binds significantly
